The values below come from article doi:10.1101/2022.06.29.498187v1 (bioRxiv, 2022).

In assay [1] the target is T1, human GHSR1a (Homo sapiens, UniProt Q92847). In words: Receptor activation assay, CRE-controlled NanoLuc reporter. The assay is classed as cell-based.
Assay [2] concerns the target T1, human GHSR1a. In words: NanoBiT-based homogenous binding assay. Particulars: ghrelin-SmBiT and LEAP2-SmBiT tracers.

T1 sequence (Q92847 whole entry): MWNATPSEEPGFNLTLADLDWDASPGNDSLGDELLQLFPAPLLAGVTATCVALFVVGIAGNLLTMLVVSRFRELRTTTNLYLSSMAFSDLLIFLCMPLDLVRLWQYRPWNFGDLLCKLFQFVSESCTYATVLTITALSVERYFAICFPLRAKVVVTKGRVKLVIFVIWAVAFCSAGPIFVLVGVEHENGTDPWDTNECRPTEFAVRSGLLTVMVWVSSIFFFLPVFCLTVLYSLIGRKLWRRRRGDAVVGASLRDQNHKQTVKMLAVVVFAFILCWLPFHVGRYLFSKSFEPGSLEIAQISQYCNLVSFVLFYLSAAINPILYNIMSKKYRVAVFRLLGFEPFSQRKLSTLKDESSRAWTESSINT

For `CCCCCSC[C@H](NC(=O)[C@H](CO)NC(=O)CN)C(=O)N[C@@H](Cc1ccccc1)C(=O)N[C@@H](CC(C)C)C(=O)N[C@@H](CO)C(=O)N1CCC[C@H]1C(=O)N[C@@H](CCC(=O)O)C(=O)N[C@@H](Cc1c[nH]cn1)C(=O)N[C@@H](CCC(N)=O)C(=O)N[C@@H](CCCNC(=N)N)C(=O)N[C@H](C(=O)N[C@@H](CCC(N)=O)C(=O)N[C@@H](CCC(N)=O)C(=O)N[C@@H](CCCNC(=N)N)C(=O)N[C@@H](CCCCN)C(=O)N[C@@H](CCC(=O)O)C(=O)N[C@@H](CO)C(=O)N[C@@H](CCCCN)C(=O)N[C@@H](CCCCN)C(=O)N1CCC[C@H]1C(=O)N1CCC[C@H]1C(=O)N[C@@H](C)C(=O)N[C@@H](CCCCN)C(=O)N[C@@H](CC(C)C)C(=O)N[C@@H](CCC(N)=O)C(=O)N1CCC[C@H]1C(=O)N[C@@H](CCCNC(=N)N)C(=O)O)C(C)C` [analog 1], in assay [1], the “fold lower receptor activation potency compared to native human ghrelin” value was around 7 fold. The “fold lower receptor binding activity compared to native human ghrelin” value in assay [2] is given as around 15 fold.
